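Cultured in 96-well plates, cells were exposed to test compound for 48 hours across five concentrations. TGI is the concentration that stops growth completely.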 Where a SMILES comes first, the peptide text is derived from it. [ ]: non-standard residue; d: D form. Phe(4-NO2) = N[CH](Cc1ccc([N+](=O)[O-])cc1)C(=O)O
Tests used:
Experiment in all cases: NCI anticancer screen, dose series, 48 h
BT-549 breast = system: BT-549 breast
CAKI-1 renal = system: CAKI-1 renal
EKVX NSCLC = system: EKVX NSCLC
HOP-62 NSCLC = system: HOP-62 NSCLC
HT29 colon = system: HT29 colon
IGROV1 ovarian = system: IGROV1 ovarian
MALME-3M melanoma = system: MALME-3M melanoma
MCF7 breast = system: MCF7 breast
MDA-N = system: MDA-N
NCI-H226 lung = system: NCI-H226 lung
NCI-H23 lung = system: NCI-H23 lung
NCI-H460 lung = system: NCI-H460 lung
OVCAR-3 ovarian = system: OVCAR-3 ovarian
OVCAR-8 ovarian = system: OVCAR-8 ovarian
PC-3 prostate = system: PC-3 prostate
SK-MEL-2 melanoma = system: SK-MEL-2 melanoma
SK-MEL-28 melanoma = system: SK-MEL-28 melanoma
UACC-62 melanoma = system: UACC-62 melanoma
HL-60(TB) leukemia = system: HL-60(TB) leukemia

Row | Structure (SMILES) | TGI (BT-549 breast) [µM] | TGI (CAKI-1 renal) [µM] | TGI (EKVX NSCLC) [µM] | TGI (HOP-62 NSCLC) [µM] | TGI (HT29 colon) [µM] | TGI (IGROV1 ovarian) [µM] | TGI (MALME-3M melanoma) [µM] | TGI (MCF7 breast) [µM] | TGI (MDA-N) [µM] | TGI (NCI-H226 lung) [µM] | TGI (NCI-H23 lung) [µM] | TGI (NCI-H460 lung) [µM] | TGI (OVCAR-3 ovarian) [µM] | TGI (OVCAR-8 ovarian) [µM] | TGI (PC-3 prostate) [µM] | TGI (SK-MEL-2 melanoma) [µM] | TGI (SK-MEL-28 melanoma) [µM] | TGI (UACC-62 melanoma) [µM] | TGI (HL-60(TB) leukemia) [µM]
1 | COc1ccc2[nH]cc(C(=O)C(=O)NC34CC5CC(CC(C5)C3)C4)c2c1 | > 100 | > 100 | > 100 | 74.7 | 5.32 | > 100 | > 100 | > 31.6 | > 100 | > 71.1 | > 100 | 91.3 | > 49.5 | > 100 | > 100 | > 100 | > 100 | > 69.4 | 
2 | C=C(C)[C@@]1(O)CCCC[C@@H]1CC(Sc1ccccc1)Sc1ccccc1 |  | 28.8 | 28.7 | 35 | 42.5 | 33.6 | 26.2 | 53.9 | 47.8 | 32.1 | 29.9 | 29.4 |  | 38.6 | 34.8 | 30.1 | 38.6 | > 100 | 78.4
3 | COC(=O)c1ccccc1CC(Cc1ccc2c(c1)CCC2)C(=O)OC (stereo not given) |  | > 100 | > 100 | > 100 | > 100 | > 100 | > 100 | > 100 | > 100 | > 100 | > 100 | > 100 | > 100 | > 100 | > 100 | > 100 | > 100 |  | > 100
4 | Cc1ccc(N=NC(=Nc2ccc(Cl)cc2)c2ccc(N(CCC#N)CCC#N)cc2)cc1 | > 100 | > 100 | > 100 | > 100 | > 100 | > 100 |  | > 100 | > 100 | > 100 | > 100 | > 100 | > 100 | > 100 | 92 |  | > 100 | > 100 | 
5 | [N-]=[N+]=Nc1c(Cl)c(Cl)nc2ccccc12 |  | 57.8 | > 100 | > 100 | > 100 | > 100 | > 100 | > 100 | > 100 | > 100 | > 100 | > 100 | > 100 | > 100 | > 100 | > 100 | > 100 | > 100 | 
6 | O=C(c1nc2ccccc2[nH]c1=O)C(O)c1ccco1 (stereo not given) |  |  | > 100 | > 100 | > 100 | > 100 | > 100 |  |  | > 100 | > 100 | > 100 | > 100 | > 100 |  | > 100 | > 100 | > 100 | > 100
7 | CNC(=O)NCCN1CC2CCC(CC2)C1 |  | > 10 | > 10 | > 10 | > 10 | > 10 | > 10 | > 10 | > 10 | > 10 | > 10 | > 10 | > 10 | > 10 | > 10 | > 10 | > 10 | > 10 | > 10
8 | CCOC(=O)C1(C(=O)OCC)C[C@@H](C)[C@@H](O)C1 |  | > 100 | > 100 | > 100 | > 100 | > 100 | > 100 | > 100 | > 100 | > 100 | > 100 | > 100 | > 100 | > 100 | > 100 | > 100 | > 100 | > 100 | > 100
9 | CCCN(CCC)C(=S)N/N=C/c1ccccn1 | 22.5 | 15.9 | 11.3 | 3.18 | > 37.4 |  | 6.05 |  | 14.8 | 1.14 | 19.5 | 0.187 |  | 11.9 | 16.1 | 14.9 | > 63.9 | 1.91 | 0.207
10 | O=C(O)c1nc2ccc(C(F)(F)F)cc2nc1NCc1ccc(Cl)c(Cl)c1 | 33.1 | 36.9 | 30.4 | 32.2 | 28.5 | 30.7 |  | 45.3 | 35.1 | 44.1 | 32.4 | 30.8 | 24.6 | 32.8 | 29.4 | 27.8 | 33.7 | 32.5 | 
11 | O=C(NNC1=NCCCCN1)Nc1ccc(Cl)cc1 | > 100 | > 100 | > 100 | > 100 | > 100 | > 100 | > 100 | > 100 |  | > 100 | > 100 | > 100 | > 100 | > 100 | > 100 | > 100 | > 100 | > 100 | > 100
12 | CC(=O)OCC1OC(n2c3c(cc(C#N)c2=S)CCC3)C(OC(C)=O)C(OC(C)=O)C1OC(C)=O (stereo not given) | > 100 | > 100 |  | > 100 | > 100 | > 100 | > 100 | > 100 | > 100 | > 100 | > 100 | > 100 |  | > 100 | > 100 | > 100 | > 100 | > 100 | > 100
13 | CCSc1cc2c(cc1O)CC[C@@H]1[C@@H]2CC[C@]2(C)[C@@H](O)CC[C@@H]12 |  | 26.4 |  | 30.6 | 23 | 25 | 23.8 | 27.5 | 7.66 | 35.1 | 44.3 | 19.2 |  | 38.5 | 18.9 | 37.7 | 28.9 | 27.7 | > 100
14 | CC1=NNC(=O)C1C1CC(c2c[nH]c3ccccc23)=NN(C(N)=O)C1=O (stereo not given) | > 100 | > 100 | > 100 | > 100 | > 100 | > 100 | > 100 |  | > 100 | > 100 | > 100 | > 100 | > 100 | > 100 | > 100 | > 100 | > 100 | > 100 | > 100
15 | CC(NC(=O)C(Cc1ccc([N+](=O)[O-])cc1)NC(=O)C(N)CCCCN)C(=O)NC(Cc1ccc([N+](=O)[O-])cc1)C(N)=O (stereo not given) (H-K[Phe(4-NO2)]A[Phe(4-NO2)]-NH2; configuration not given here) | > 54 | > 100 | > 100 | > 52.1 | > 100 | > 100 | > 83.7 | > 100 |  | > 100 | > 100 | > 100 | > 100 | > 100 | > 100 | > 86.6 | > 100 | > 100 | > 48.9
16 | O=C1CC2(CCC3=C(O2)c2ccccc2NC(=O)C3)C(=O)c2ccccc2N1 (stereo not given) |  |  | > 100 | > 100 | > 100 | > 100 | > 100 |  |  | > 100 | > 100 | > 100 | > 100 | > 100 |  | > 100 | > 100 | > 100 | > 100
17 | C=C/C(C)=C\CC1[C@](C)(O)CC[C@H]2C(C)(C)C(O)CC[C@]12C (stereo not given in full) |  | > 100 | > 100 |  | > 100 | > 100 | > 100 | > 100 | > 100 | > 100 | > 100 | > 100 | > 100 | > 100 | > 100 | > 100 | > 100 | > 100 | > 100
18 | COc1ccc2nc3c([N+](=O)[O-])ccc(NCCCN(C)C)c3c(NCCCN(C)C)c2c1 |  | 3.98 | 5.09 | 3.07 | 2.56 | 4.07 | > 10 | 2.33 |  |  | 3.46 |  |  | 2.9 | 2.24 |  | 3.42 | > 10 | 8.81
19 | CN(C)CCNC(=O)c1cccc2c(NC(CS)C(=O)O)c3ccccc3[n+](C)c12 (stereo not given) | 98.2 |  | > 100 | > 100 | > 100 | > 100 | > 100 | > 100 |  |  | > 100 | > 100 | > 100 | > 100 | > 100 | > 100 | > 100 | > 100 | 
20 | C/C=C1\CC2C(=O)CCC2C2c3ccccc3OC12 (stereo not given) |  | > 100 | > 100 | > 100 | > 100 | > 100 | > 100 | > 100 | 0.24 | > 100 | > 100 | > 100 | > 100 | > 100 | > 100 | > 100 | > 100 | > 100 | > 100
21 | O[C@H]1[C@H](O)[C@@H](O)[C@@]2(O)CC[C@@H]1N2 | > 100 | > 100 | > 100 | > 100 | > 100 | > 100 | > 100 | > 100 | > 100 | > 100 | > 100 | > 100 | > 100 | > 100 | > 100 | > 100 | > 100 | > 100 | 
22 | O=C1/C(=C/c2ccco2)N=C2Sc3c(nc[nH]c3=O)N12 |  | > 100 | > 100 | > 100 | > 100 | > 100 | > 100 | > 100 | > 100 | > 100 | > 100 |  | > 100 | > 100 | > 100 | > 100 | > 100 |  | > 100
23 | COc1ccc(-c2c3c(n(C4OC(COC(C)=O)C(OC(C)=O)C(OC(C)=O)C4OC(C)=O)c(=S)c2C#N)CCC3)cc1 (stereo not given) | > 100 | > 100 |  | > 100 | > 100 | > 100 | > 100 | > 100 | > 100 |  | > 100 | > 100 | > 100 |  | > 100 | > 100 | > 100 | > 100 | > 100
24 | CCOC(=O)Cn1c(=O)c2nc(SC)sc2n(-c2ccccc2)c1=S |  |  |  | 57.1 | > 100 | > 100 | 60.2 | > 100 | > 100 | 36.6 | > 100 | 99.4 | 97.7 | 95.8 | 84.4 | 63.1 | > 100 | 11.5 | 59.4
25 | O=C(CC(C(=O)c1cccs1)c1ccsc1)c1ccccc1 (stereo not given) |  | > 100 | > 100 | > 100 | > 100 | > 100 |  | 99.1 | > 100 | > 100 | 85.4 | > 100 | > 100 | > 100 |  |  | > 100 | > 100 | 
26 | CC(=NNC(=S)Nc1cccc(C)c1)c1cccc(C(C)=NNC(=S)Nc2cccc(C)c2)n1 |  | 71.1 | > 100 | > 100 | > 100 | 46.7 | 49.2 | 77.7 | > 100 | 95.1 | > 100 | > 100 | 26.8 | 76.3 | > 100 | 74 | > 100 | > 100 | 70.1
27 | CCOC(=O)C1C(C)C2(C#N)C(=N)OC1(C)C2(C#N)C#N (stereo not given) |  | > 100 | > 100 |  | > 100 | > 100 | > 100 | > 100 | > 100 | > 100 | > 100 |  |  | > 100 | > 100 | > 100 | > 100 | > 100 | 60.3

— PubChem BioAssay (NCI)
